Laboratory results as given in ChEMBL document CHEMBL1201861, “Genomics of Drug Sensitity in Cancer screening data, Wellcome Trust Sanger Institute”.
pIC50: −log10 of the molar value.

Assays:
Assay in all cases: cells
TI-73 = type: functional, cell-based; settings: Homo sapiens;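 also: cell viability assay measuring how much compounds suppress growth of the cultured cell line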
Description: SANGER: Inhibition of human TI-73 cell growth in a cell viability assay.

EW-22 = type: functional, cell-based; settings: Homo sapiens;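 also: growth inhibition of the EW-22 cell line, measured with a cell viability readout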
Description: SANGER: Inhibition of human EW-22 cell growth in a cell viability assay.

BT-549 = type: functional, cell-based; settings: Homo sapiens
Description: SANGER: Inhibition of human BT-549 cell growth in a cell viability assay.

NCI-H2291 = type: functional, cell-based; settings: Homo sapiens
Description: SANGER: Inhibition of human NCI-H2291 cell growth in a cell viability assay.

NBsusSR = type: functional, cell-based; settings: Homo sapiens;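 also: growth inhibition of the human cell line, read out with a cell viability assay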
Description: SANGER: Inhibition of human NBsusSR cell growth in a cell viability assay.

SW900 = type: functional, cell-based; settings: Homo sapiens;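 also: IC50 is the concentration that inhibits SW900 cell growth, measured by a cell viability assay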
Description: SANGER: Inhibition of human SW900 cell growth in a cell viability assay.

A549 = type: functional, cell-based; settings: Homo sapiens;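 also: growth inhibition of A549 cells, read out with a cell viability assay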
Description: SANGER: Inhibition of human A549 cell growth in a cell viability assay.

H9 = type: functional, cell-based; settings: Homo sapiens
Description: SANGER: Inhibition of human H9 cell growth in a cell viability assay.

BALL-1 = type: functional, cell-based; settings: Homo sapiens;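 also: growth inhibition of BALL-1 cells, read out with a cell viability assay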
Description: SANGER: Inhibition of human BALL-1 cell growth in a cell viability assay.

NCI-H630 = type: functional, cell-based, Homo sapiens; settings: Homo sapiens, NCI-H630;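 also: growth inhibition of NCI-H630 cells, read out with a cell viability assay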
Description: SANGER: Inhibition of human NCI-H630 cell growth in a cell viability assay.

HuO9 = type: functional, cell-based, Homo sapiens; settings: Homo sapiens, HuO9;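 also: growth inhibition of HuO9 cells, read out with a cell viability assay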
Description: SANGER: Inhibition of human HuO9 cell growth in a cell viability assay.

NCI-H2009 = type: functional, cell-based, Homo sapiens; settings: Homo sapiens, NCI-H2009;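 also: cell viability assay measuring inhibition of NCI-H2009 cell growth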
Description: SANGER: Inhibition of human NCI-H2009 cell growth in a cell viability assay.

D-566MG = type: functional, cell-based; settings: Homo sapiens
NCI-H1703 = type: functional, cell-based, Homo sapiens; settings: Homo sapiens, NCI-H1703;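 also: growth inhibition of NCI-H1703 cells, read out via a cell viability assay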
Description: SANGER: Inhibition of human NCI-H1703 cell growth in a cell viability assay.

ECC10 = type: functional, cell-based; settings: Homo sapiens;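 also: growth inhibition of ECC10 cells, read out by a cell viability assay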
Description: SANGER: Inhibition of human ECC10 cell growth in a cell viability assay.

SJRH30 = type: functional, cell-based; settings: Homo sapiens;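 also: growth inhibition of human SJRH30 cells, read out with a cell viability assay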
Description: SANGER: Inhibition of human SJRH30 cell growth in a cell viability assay.

KNS-62 = type: functional, cell-based; settings: Homo sapiens;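 also: inhibition of cell growth, read out with a cell viability assay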
Description: SANGER: Inhibition of human KNS-62 cell growth in a cell viability assay.

D-423MG = type: functional, cell-based; settings: Homo sapiens
Description: SANGER: Inhibition of human D-423MG cell growth in a cell viability assay.

NCI-H2029 = type: functional, cell-based; settings: Homo sapiens;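 also: Read-out is a viability assay on the cultured cells, and IC50 is the concentration that suppresses cell growth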
Description: SANGER: Inhibition of human NCI-H2029 cell growth in a cell viability assay.

SW 1116 = type: functional, cell-based; settings: Homo sapiens;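 also: growth inhibition of SW1116 cells, read out with a cell viability assay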
Description: SANGER: Inhibition of human SW1116 cell growth in a cell viability assay.

NCI-H1666 = type: functional, cell-based; settings: Homo sapiens;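 also: growth inhibition of the cell line, read out with a cell viability assay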
Description: SANGER: Inhibition of human NCI-H1666 cell growth in a cell viability assay.

NCI-H1048 = type: functional, cell-based; settings: Homo sapiens;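 also: growth inhibition of human NCI-H1048 cells, read out with a cell viability assay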
Description: SANGER: Inhibition of human NCI-H1048 cell growth in a cell viability assay.

TGBC11TKB = type: functional, cell-based; settings: Homo sapiens;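 also: growth inhibition of human TGBC11TKB cells, measured by a cell viability assay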
Description: SANGER: Inhibition of human TGBC11TKB cell growth in a cell viability assay.

For CCOc1nc(NC(=O)Cc2cc(OC)ccc2OC)cc(N)c1C#N, the pIC50 (TI-73) was < 5.00, the pIC50 (EW-22) was < 5.00 and the pIC50 (BT-549) was < 5.00. For the same molecule, the pIC50 (NCI-H2291) was < 5.00, the pIC50 (NBsusSR) was < 5.00 and the pIC50 (SW900) was < 5.00. The pIC50 (A549) was < 5.00, the pIC50 (H9) was < 5.00 and the pIC50 (BALL-1) was < 5.00. For the same molecule, the pIC50 (NCI-H630) was < 5.00, the pIC50 (HuO9) was < 5.00 and the pIC50 (NCI-H2009) was < 5.00. The pIC50 (D-566MG) was < 5.00, the pIC50 (NCI-H1703) was < 5.00 and the pIC50 (ECC10) was < 5.00. The pIC50 (SJRH30) was < 5.00, the pIC50 (KNS-62) was < 5.00 and the pIC50 (D-423MG) was < 5.00. The pIC50 (NCI-H2029) was < 5.00, the pIC50 (SW 1116) was < 5.00 and the pIC50 (NCI-H1666) was < 5.00. For the same molecule, the pIC50 (NCI-H1048) was < 5.00 and the pIC50 (TGBC11TKB) was < 5.00.
For CC(=O)O[C@@H]1[C@@H](OC(C)=O)[C@@H](O)[C@H](Oc2c(-c3ccc(O)cc3)oc3cc(O)cc(O)c3c2=O)O[C@H]1C, the pIC50 (TI-73) was < 5.00, the pIC50 (EW-22) was < 5.00 and the pIC50 (BT-549) was < 5.00. The pIC50 (NCI-H2291) was < 5.00, the pIC50 (NBsusSR) was < 5.00 and the pIC50 (SW900) was < 5.00. The pIC50 (A549) was < 5.00, the pIC50 (H9) was < 5.00 and the pIC50 (BALL-1) was < 5.00. The pIC50 (NCI-H630) was < 5.00, the pIC50 (HuO9) was < 5.00 and the pIC50 (NCI-H2009) was < 5.00. The pIC50 (D-566MG) was < 5.00, the pIC50 (NCI-H1703) was < 5.00 and the pIC50 (ECC10) was < 5.00. The pIC50 (SJRH30) was < 5.00, the pIC50 (KNS-62) was < 5.00 and the pIC50 (D-423MG) was < 5.00. For the same molecule, the pIC50 (NCI-H2029) was < 5.00, the pIC50 (SW 1116) was < 5.00 and the pIC50 (NCI-H1666) was < 5.00. For the same molecule, the pIC50 (NCI-H1048) was < 5.00 and the pIC50 (TGBC11TKB) was < 5.00.
COc1cc(F)c(F)c(Nc2ccc(I)cc2F)c1NS(=O)(=O)C1(CC(O)CO)CC1 (stereo not drawn) was tested, and the pIC50 (TI-73) was 5.74, the pIC50 (EW-22) was < 5.30 and the pIC50 (BT-549) was < 5.30. The pIC50 (NCI-H2291) was 6.40, the pIC50 (NBsusSR) was < 5.30 and the pIC50 (SW900) was < 5.30. For the same molecule, the pIC50 (A549) was 6.94, the pIC50 (H9) was 7.70 and the pIC50 (BALL-1) was < 5.30. The pIC50 (NCI-H630) was < 5.30, the pIC50 (HuO9) was < 5.30 and the pIC50 (D-566MG) was 5.37. For the same molecule, the pIC50 (ECC10) was 5.86, the pIC50 (SJRH30) was < 5.30 and the pIC50 (KNS-62) was 5.73. For the same molecule, the pIC50 (D-423MG) was < 5.30, the pIC50 (NCI-H2029) was < 5.30 and the pIC50 (SW 1116) was < 5.30. For the same molecule, the pIC50 (NCI-H1666) was 6.05, the pIC50 (NCI-H1048) was < 5.30 and the pIC50 (TGBC11TKB) was < 5.30.
With O=C1N=C(NCc2cccs2)S/C1=C\c1ccc2ncccc2c1 the pIC50 (TI-73) was < 5.30, the pIC50 (EW-22) was < 5.30 and the pIC50 (BT-549) was < 5.30. For the same molecule, the pIC50 (NCI-H2291) was < 5.30, the pIC50 (NBsusSR) was < 5.30 and the pIC50 (SW900) was < 5.30. The pIC50 (A549) was < 5.30, the pIC50 (H9) was < 5.30 and the pIC50 (BALL-1) was < 5.30. For the same molecule, the pIC50 (NCI-H630) was < 5.30, the pIC50 (HuO9) was < 5.30 and the pIC50 (D-566MG) was < 5.30. The pIC50 (ECC10) was < 5.30, the pIC50 (SJRH30) was < 5.30 and the pIC50 (KNS-62) was < 5.30. The pIC50 (D-423MG) was < 5.30, the pIC50 (NCI-H2029) was < 5.30 and the pIC50 (SW 1116) was < 5.30. The pIC50 (NCI-H1666) was < 5.30, the pIC50 (NCI-H1048) was < 5.30 and the pIC50 (TGBC11TKB) was < 5.30.
